Here are results for 52 compounds from PubChem BioAssay AID1996.

SMILES strings stand for the structures. ≈ marks a conversion by molar mass, not a printed value.

For this data set the following is noted: buffer; pH 7.4; 200.0 µM.
For the compound `COc1ccc(CCNC(=O)c2cnc(Cl)c(Cl)c2)cc1`, the kinetic solubility (as a rule, the concentration staying in solution when a stock, usually in DMSO, is diluted into the medium) was found to be 0.0024 mg/mL (≈ 7.38 µM).

The compound `Cc1ccc(-n2nc3c(c2NC(=O)C(C)(C)C)CS(=O)(=O)C3)cc1` displayed a solubility (kinetic) of over 0.0521 mg/mL.

With `COc1ccccc1Oc1nc(-c2cccnc2)nc2ccccc12`, the solubility (kinetic) was determined as 0.0021 mg/mL (≈ 6.38 µM). Next, `CCN(CC(=O)Nc1ccccc1OC)Cc1csc(CC(=O)Nc2ccc(C)cc2)n1`: 0.019 mg/mL (≈ 42 µM); `CCOc1ccc2[nH]cc(C(=O)NCc3ccc(F)cc3)c(=O)c2c1`: 0.0019 mg/mL (≈ 5.58 µM). Next, `Cc1cccc(NC(=O)c2ccc([N+](=O)[O-])s2)n1`: 0.0095 mg/mL (≈ 36.1 µM); `Cc1cnc(NC(=O)c2ccc3ncsc3c2)s1`: 0.0035 mg/mL (≈ 12.7 µM). To `CN(C)CCN1CC(O)=C(c2nc3ccccc3s2)C1=N` belongs 0.0315 mg/mL (≈ 104 µM).

In turn, `O=C(OCC(=O)N1CCCCCC1)c1cccc(Cl)c1` yielded a kinetic solubility of over 0.0444 mg/mL. Next, `Cc1cc(C(=O)Nc2ccc(Cl)cc2)c2ccccc2n1`: under 0.0003 mg/mL; `CCN1CCN(Cc2cc3c(cc2[N+](=O)[O-])OCO3)CC1`: 0.0411 mg/mL (≈ 140 µM); `Cc1ccccc1C(=O)c1c[nH]c(C(=O)N=CN(C)C)c1`: over 0.0425 mg/mL.

Compound `Cc1nn(C)c(C)c1NC(=O)COc1ccc(Cl)cc1` registered a solubility (kinetic) of over 0.0441 mg/mL. To `O=C(Nc1ccc(F)cc1)/C(=C1/CCCCCN1)[N+](=O)[O-]` belongs over 0.044 mg/mL; to `CCOC(=O)c1cc(C#N)c(SCC(N)=O)[nH]c1=O`, over 0.0422 mg/mL; to `Cl.OC(CNCc1cccc(Br)c1)c1ccccc1` (configuration not stated), 0.0481 mg/mL. To `O=[N+]([O-])c1ccc2nc(C3CCCCC3)[nH]c2c1` belongs 0.0315 mg/mL (≈ 128 µM); to `CCOCCn1c(SC(C)C(C)=O)nc2c1c(=O)[nH]c(=O)n2C` (configuration not stated), over 0.0511 mg/mL; to `CCn1cc(C(=O)NCCC(=O)NCCCO)c(=O)c2cc3c(cc21)OCO3`, over 0.0584 mg/mL.

As for `COC(=O)C1CCN(C(=O)c2cc(-c3ccco3)nc3ccccc23)CC1`, the kinetic solubility was over 0.0547 mg/mL. The compound `COc1cccc(C(C)NC(=O)c2ccncc2)c1` (configuration not stated) registered a solubility (kinetic) of over 0.0384 mg/mL. As to `CCOC(=O)C1CCCN(C(=S)NC2CCCCC2)C1` (configuration not stated), the solubility (kinetic) is over 0.0448 mg/mL. Next, `Cl.O=C(NCc1ccccc1)N1CCNCC1`: over 0.0384 mg/mL. Consider `CC(=O)Nc1ccc(NS(=O)(=O)c2ccc3c(c2)oc(=O)n3C)cc1`, for which the kinetic solubility is over 0.0542 mg/mL. To `COC(=O)c1c(NC(=O)C(C)C)sc(C(=O)N2CCOCC2)c1C` belongs over 0.0532 mg/mL.

Compound `CCOc1ccc(S(=O)(=O)N(CC)CC)cc1N` displayed a solubility (kinetic) of over 0.0409 mg/mL. Take `NCCNc1ccc([N+](=O)[O-])c2cccnc12`: the solubility (kinetic) turned out to be 0.0287 mg/mL (≈ 124 µM).

As for `CC(C)[C@H](NC(=O)NCCC1=CCCCC1)C(=O)O`, the kinetic solubility is over 0.0403 mg/mL.

For `Cc1ccc(S(=O)(=O)Nc2cccnc2)cc1C`, the kinetic solubility turned out to be 0.0107 mg/mL (≈ 40.8 µM).

Compound `Cl.Cn1sccc1=O` yielded a kinetic solubility of 0.0184 mg/mL. For `CC(NC(=O)CNC(=O)c1ccccc1Br)c1cccs1` (configuration not stated), the solubility (kinetic) was over 0.0551 mg/mL. To `CCOc1ccccc1C(=S)NC1CCCCC1` belongs 0.0145 mg/mL (≈ 55 µM). With `Cc1cc(NC(=O)COC(=O)C2=COCCO2)c([N+](=O)[O-])cc1C`, the kinetic solubility was 0.0037 mg/mL (≈ 11 µM). In turn, `Cc1csc(=Nc2ccccc2)n1CCCN1CCCC1=O` showed a solubility (kinetic) of over 0.0473 mg/mL. To `CC1Cc2ccccc2N1C(=O)CN1CCCCC1.Cl` (configuration not stated) belongs 0.0393 mg/mL; to `O=[N+]([O-])c1ccc(-c2cnc3ccccc3n2)cc1`, 0.0006 mg/mL (≈ 2.39 µM). To `Cc1noc(C)c1C(=O)OCC(=O)N(C)C1(C#N)CCCCC1` belongs over 0.0479 mg/mL; to `CC(=O)C1=C(O)C(=O)N(Cc2ccccc2)C1c1ccc(Cl)cc1` (configuration not stated), over 0.0513 mg/mL; to `CCOC(=O)c1cnc(SC)nc1NCCOC`, over 0.0407 mg/mL. Next, `O=C(Nc1ccc2c(c1)OCCO2)C(=O)c1c[nH]c2ccccc12`: under 0.0003 mg/mL; `CCCn1c(N)c(CC)c(=O)[nH]c1=O`: over 0.0296 mg/mL. The compound `CCOc1ncccc1C(=O)OCC(=O)NCCCc1ccccc1` came in with a kinetic solubility of over 0.0514 mg/mL. Next, `N#CCCN(CCC#N)C(=S)NC1CC2C=CC1C2` (configuration not stated): over 0.0412 mg/mL. To `CCN(CC)CCn1c(-c2ccc(C)cc2)nc(=S)c2c1CC(C)(C)OC2` belongs over 0.0578 mg/mL; to `COC(=O)c1sccc1S(=O)(=O)Nc1ccc(Cl)cc1`, 0.013 mg/mL (≈ 39.2 µM); to `COc1ccc(CC(=O)OCC(=O)Nc2cccc(Cl)c2)cc1`, 0.034 mg/mL (≈ 102 µM). Next, `Cc1ccc(C(=O)NCC(=O)Nc2ccc3c(c2)CCC3)cc1`: 0.003 mg/mL (≈ 9.73 µM). In turn, `C/C(=C/c1ccccc1)C(=O)N1CCN(c2ccccc2F)CC1` gave a solubility (kinetic) of 0.0356 mg/mL (≈ 110 µM). To `CN(C)/C=C/C(=O)c1ccccc1` belongs over 0.0263 mg/mL; to `Cc1ccc(C(=O)N/N=C\c2cccnc2)s1`, over 0.0368 mg/mL; to `COc1ccc(OC)c(NC(=S)N2CCN(C(=O)C3CCCO3)CC2)c1` (configuration not stated), over 0.0569 mg/mL. `O=[N+]([O-])c1ccc(Sc2cccc3cccnc23)c2cccnc12`: the kinetic solubility was under 0.0002 mg/mL.
